Measurements reported in publication PMC13401508 (Pharmacological research, 2026).

Experiments:
[1] = system: PC3-ML, ARCaP-M, C4–2B, RM1-BM and TRAMP-C2 cells; experiment: Boyden chamber / Transwell Matrigel invasion assay; format: cell-based, human and murine; details: 25 μM, 18 hrs, all five cell lines
Procedure: Boyden chamber assays were performed using Corning® BioCoat® Matrigel® Invasion Chambers obtained from Corning Inc., USA. In brief, cells were seeded on the Matrigel-coated upper chamber and treated with IVMT-Rx-4. Invaded cells were fixed, stained and counted after 18 hrs. as previously described.
Fig. 1. Primary characterization of IVMT-Rx-4. A) Chemical structure (upper panel) and synthesis scheme (lower panel). […] All proteins were extracted, and Western blotting was performed immediately after heating. Quantifications were obtained in the absence (control) or presence of IVMT-Rx-4 and values are presented as percentage of RT (room temperature) normalized for the experimental groups (control, IVMT-Rx-4). SOD (Superoxide dismutase) was used as an endogenous control. […] Colonies were stained with crystal violet and counted (n = 3 ± SD; ns: non-significant). […] Invaded cells were stained with crystal violet. Top panel: representative photograph of invaded cells under different experimental settings. Bottom panel: graphical representation of number of invaded cells/field for different cell lines (n = 3 ± SD; * p < 0.05).

[2] = system: Caco-2 cell monolayer; experiment: Caco-2 bidirectional permeability; format: in vitro ADME; details: 10 µM
Procedure: To prepare the Caco-2 cell monolayer, 50 µL and 25 µL of cell culture medium (Dulbecco’s modified Eagle’s medium, DMEM) were added to each well of the inserts and reservoir, respectively, within a 96-well HTS Transwell plate (Corning, NY, USA). The plate was incubated at 37 °C and 5% CO2 for 1 hr. prior to cell seeding. Caco-2 cells were then diluted to 6.86 x 10^5 cells/mL using culture medium and 50 µL of cell suspension were seeded into the plate, and incubated at 37 °C, 5% CO2, and 95% relative humidity for 14-18 days. During this time, the cells were cultivated with media replacements occurring every other day. Cells were allowed to grow and differentiate and the integrity of the Caco-2 cell monolayer was evaluated by measurement of transepithelial electrical resistance (TEER) using a Millicell Epithelial Volt-Ohm measuring system (Millipore, USA).
Prior to the assay, the established monolayer was washed twice with pre-warmed HBSS and incubated at 37 °C for 30 minutes. A bidirectional permeability assay was performed simultaneously using two different plates as described previously (Supplementary Reference: Cui Y, Desevaux C, Truebenbach I, Sieger P, Klinder K, Long A, Sauer A. A Bidirectional Permeability Assay for beyond Rule of 5 Compounds. Pharmaceutics. 2021 Jul 27;13(8):1146. doi: 10.3390/pharmaceutics13081146. PMID: 34452112; PMCID: PMC8400635.): one assessed permeability from the apical to the basolateral side, while the other assessed from the basolateral to the apical side. […] For apical to basolateral permeability, 108 µL of working solution was loaded into the apical compartment, whereas 308 µL of working solution was added to the basolateral compartment for basolateral to apical permeability. The samples collected from donor and receiver compartment were mixed with 72 µL transport buffer and 240 µL of acetonitrile containing internal standard (IS, 100 nM alprazolam, 200 nM Caffeine and 100 nM tolbutamide), centrifuged at 1000 rpm for 10 minutes. […] In doing so, the following equations were used: […]
Where, Papp is apparent permeability (cm/s x 10^-6), dQ/dt is the rate of drug transport (pmol/second), A is the surface area of the membrane (cm^2), and D0 is the initial donor concentration (nM; pmol/cm^3). (B-A) indicates basolateral to apical permeation, where (A-B) indicates apical to basolateral.

[3] = Dynamic vapor sorption (DVS); format: physicochemical; details: for moisture adsorption: 25°C
Procedure: Hygroscopicity and moisture absorption of IVMT-Rx-4 were assessed using dynamic vapor sorption on a DVS instrument (SMS, DVS Intrinsic). Samples 20.4 mg in size were first treated at 25°C for several hours while under nitrogen flow. They were then treated with water vapor at various partial pressures with relative humidities which ranged from 0 to 90% at 25°C.

[4] = system: NF-κB p65; experiment: NF-κB p65 transcription factor activation assay; format: cell-based, human; details: PC3-ML, ARCaP-M and C4–2B cells, 24 hrs, vs vehicle
Procedure: NF-κB p65 transcription factor assay kits were obtained from Cayman Chemical, USA and performed following the manufacturer’s instructions.
Fig. 2. […] NF-κB activity was measured by absorbance at 450 nm (n = 3 ± SD; * p < 0.05). […] C) PDGF-AA protein levels were determined in the three PC cell line-derived conditioned media by ELISA. In both panels: n = 3 ± SD; * p < 0.05.

[5] = system: PDGFRα; experiment: Western blot, PDGF-AA activated HS5 cells: PDGFRα; format: cell-based, human; details: PDGF-AA 10 ng/ML, 25 μM, 24 hrs
[6] = system: CXCL5; experiment: CXCL5 mRNA by qRT-PCR in murine BM-MSCs (WT and mda-9 KO); format: cell-based, C57BL/6 mice; details: murine PDGF-AA 10 ng/ML, 25 μM, 24 hrs
Procedure: Total bone marrow cells were collected from 6 to 8 weeks male MDA-9/Syntenin^WT (mda-9^WT) and global MDA-9/Syntenin knockout (mda-9^−/−) mice as previously described in Das et al.. mda-9^WT and mda-9^−/− bone marrow derived mesenchymal stromal cells were isolated using a previously outlined protocol.
Fig. 3. […] CXCL5 mRNA expression was measured by qRT-PCR. […] Secreted CXCL5 in CM was measured by ELISA (n = 3 ± SD; * p < 0.05). […] CXCL5 mRNA expression was measured by qRT-PCR (n = 3 ± SD; * p < 0.05).

[7] = system: RM1-BM-Luc cells; experiment: Experimental bone metastasis, intracardiac RM1-BM-Luc; format: in vivo, C57BL/6 mice
Procedure: For experimental bone metastasis experiments, 3 × 10^4 RM1-BM-Luc cells were injected by the intracardiac route to develop bone-metastases in 6- to 8-week-old male C57BL/6 mice as described previously. Incidence of metastasis was monitored using Bioluminescence imaging, as described previously.
Fig. 4. […] RM1-BM-Luc cells were injected through the intracardiac (I.C.) route into C57BL/6 mice to establish experimental bone metastases. […] A) BLI imaging was performed on day 15 and the number of bone metastasis positive mice were graphically represented as metastatic events. B) Calculated ROI values are graphically represented (n = 6 ± SEM; * p < 0.05). C) Ex vivo BLI image of representative bones from both vehicle and IVMT-Rx-4 treated animals. D) Representative ex vivo images and (E) number of animals positive for metastases in the lungs, liver, brain and spleen for each experimental group ae presented.

[8] = tumor-bearing animals, 30 mg/kg I.P., vs DMSO

Cc1cc(NC(=O)CCc2nnc(-c3ccccc3)o2)c(C)cc1N [IVMT-Rx-4]
cellular invasion [1]: effectively suppressed cellular invasion | Caco-2 Bidirectional A-B ([2]; apical to basolateral): 21.5 ×10⁻⁶ cm/s | Caco-2 Bidirectional B-A ([2]; basolateral to apical): 19.9 ×10⁻⁶ cm/s | moisture adsorption ([3]; 80% RH): 0.98% | moisture adsorption ([3]; 90% RH): 1.06% | hygroscopicity ([3]; DVS): slightly hygroscopic | NF-κB activity [4]: decreased NF-κB activity | PDGFRα activation (phosphorylated PDGFRα) [5]: downregulation of phosphorylated PDGFRα | CXCL5 mRNA expression ([6]; mBM-MSC WT): CXCL5 suppression occurred exclusively in mBM-MSC^WT | CXCL5 mRNA expression ([6]; mBM-MSC mda-9 KO): not in mBM-MSC^mda−9 KO cells | animals with bone metastases ([7]; 30 mg/kg I.P. 3X a week for two weeks, fourteen days post-intracardiac injection, BLI): 0 out of 6 | Ex Vivo Imaging; Positive for tumor cells (n=6) Brain ([7]; 30 mg/kg I.P., 6 doses): 0 | Ex Vivo Imaging; Positive for tumor cells (n=6) Liver ([7]; 30 mg/kg I.P., 6 doses): 2 | Ex Vivo Imaging; Positive for tumor cells (n=6) Lungs ([7]; 30 mg/kg I.P., 6 doses): 6 | Ex Vivo Imaging; Positive for tumor cells (n=6) Spleen ([7]; 30 mg/kg I.P., 6 doses): 0 | metastasis to the liver, brain and spleen, as well as to the bones ([7]; 30 mg/kg I.P., ex-vivo imaging): partially prevented metastasis | CXCL5 in the serum of mice [7, 8]: reduced expression | PDGF-AA in the serum of mice [7, 8]: reduced expression
